Tests used:
hCA I = biological target: T1, hCA I (Homo sapiens, UniProt P00915); test: stopped-flow CO2 hydrase assay, hCA I; type: biochemical
T1 construct: made in house
Procedure: (§1) An Applied Photophysics stopped-flow instrument has been used for assaying the CA-catalysed CO2 hydration activity, as reported earlier. The enzyme concentrations were in the range 5–12 nM. All hCA isoforms were recombinant proteins, being obtained in-house as reported earlier.

hCA II = biological target: T2, hCA II (Homo sapiens, UniProt P00918); test: stopped-flow CO2 hydrase assay, hCA II; type: biochemical
T2 construct: made in house
Excerpt: . The structure-activity relationship is discussed separately for the two compound subsets. Another code pattern is included for the MTDLs in Table 1, which indicates the derivative CAI type (sulphonamide, S or coumarin, C) and the number of atoms in the spacers connecting either berberine and the triazole (carbon atoms) or the triazole and the benzenesulfonamide/coumarin scaffolds (carbon or oxygen atoms).
as §1

hCA IX = biological target: T3, hCA IX (Homo sapiens, UniProt Q16790); test: stopped-flow CO2 hydrase assay, hCA IX; type: biochemical; details: for Ki: mean ± SEM of three assays; for Selectivity index (SI) I/IX: hCA IX over hCA I; for Selectivity index (SI) II/IX: hCA IX over hCA II
T3 construct: made in house
Excerpt: (§2) An Applied Photophysics stopped-flow instrument has been used for assaying the CA-catalysed CO2 hydration activity, as reported earlier. […] All hCA isoforms were recombinant proteins, being obtained in-house as reported earlier.

hCA XII = biological target: T4, hCA XII (Homo sapiens, UniProt O43570); test: stopped-flow CO2 hydrase assay, hCA XII; type: biochemical; details: for Ki: mean ± SEM of three assays; for Selectivity index (SI) I/XII: hCA XII over hCA I; for Selectivity index (SI) II/XII: hCA XII over hCA II
T4 construct: made in house
T4 sequence (O43570 25-354): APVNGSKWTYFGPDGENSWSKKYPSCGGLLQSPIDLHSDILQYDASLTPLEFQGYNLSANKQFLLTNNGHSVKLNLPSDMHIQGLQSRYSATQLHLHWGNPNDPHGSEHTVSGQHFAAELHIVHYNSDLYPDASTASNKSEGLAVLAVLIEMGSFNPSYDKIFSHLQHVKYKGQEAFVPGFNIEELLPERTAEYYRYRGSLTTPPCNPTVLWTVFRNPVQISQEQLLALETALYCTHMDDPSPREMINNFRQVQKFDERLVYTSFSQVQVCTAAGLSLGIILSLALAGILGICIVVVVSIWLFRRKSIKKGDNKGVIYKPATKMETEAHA
Excerpt: as §2

Tel23 = test: CD melting experiments, Tel23 GQ; type: binding, human; details: for ΔT1/2 Tel23: 2 molar equiv compound, T1/2 of DNA alone 53.5 °C; for ΔΔT1/2 Tel23: ΔT1/2 of compound minus ΔT1/2 of berberine, 2 molar equiv
Excerpt: (§3) The 21 synthesised MTDLs were screened for their ability to bind to and stabilise DNA GQ-forming sequences, compared to berberine, by CD experiments. Indeed, circular dichroism has shown to be outstandingly useful and informative for noncanonical nucleic acid secondary structures. For this purpose, a G-rich 23-nucleotide truncation (23-nt) of the human telomeric sequence (Tel23) and two G-rich motifs from the promoter regions of c-KIT (c-Kit1) and c-MYC (c-Myc) oncogenes were employed. First, the overall topology adopted by each DNA sequence in K^+-containing buffer was verified by CD spectra. […] GQ conformation (Figure S1, Supporting Information). On the other hand, c-Kit1 and c-Myc sequences adopted a parallel GQ conformation, showing a distinctive positive band at around 260 nm and a negative one at ∼240 nm in their CD spectra (Figures S2 and S3, Supporting Information).
(§4) Afterwards, the GQ-stabilising properties of the molecules were assessed by CD melting experiments, measuring the differences in the apparent melting temperatures of the DNA in the presence and absence of compounds (ΔT1/2) (Figures S4–S6 and Table S2, Supporting Information). […] This could be explained by considering the higher accessibility of the external G-tetrads in the case of parallel GQs compared to the hybrid one[52], which would allow the additional CAI moiety of conjugated compounds to be better accommodated in the binding site. […] . […] .

c-Kit1 = test: CD melting experiments, c-Kit1 GQ; type: binding; details: for ΔT1/2 c-Kit1: 2 molar equiv compound, T1/2 of DNA alone 55.0 °C; for ΔΔT1/2 c-Kit1: ΔT1/2 of compound minus ΔT1/2 of berberine, 2 molar equiv
Excerpt: as §3, §4

c-Myc = test: CD melting experiments, c-Myc GQ; type: binding; details: for ΔT1/2 c-Myc: 1 molar equiv compound, T1/2 of DNA alone 70.0 °C; for ΔΔT1/2 c-Myc: ΔT1/2 of compound minus ΔT1/2 of berberine, 1 molar equiv
Excerpt: as §3, §4

Hairpin = test: CD melting experiments, hairpin DNA duplex; details: 2 molar equiv compound, T1/2 of DNA alone 66.0 °C
Procedure: To evaluate the possible binding and stabilisation of double-stranded DNA, a 27-nt long hairpin-forming sequence (Hairpin) was employed.
In particular, the following DNA sequences were synthesised and employed for the experiments: d([sequence]) (c-Kit1), d([sequence]) (c-Myc), d([sequence]) (Tel23), and d([sequence]) (Hairpin). Oligonucleotides were dissolved in the proper buffer and their concentration was measured by UV absorption at 90 °C, as previously reported[80]^,[81]. To achieve the correct folding of the sequences, the DNA solutions were heated in a water bath at 90 °C for 5 min, and then allowed to cool slowly to room temperature overnight. Then, DNA samples were stored at 4 °C for 24 h, before data acquisition.
The samples were prepared by dissolving the oligonucleotides in 5 mM KH2PO4/K2HPO4 buffer (pH 7.0) containing 20 mM KCl (or LiCl in the case of c-Myc because of its high thermal stability). DNA concentrations of 20 µM for GQs and 30 µM for Hairpin were used. For each compound, a 10 mM stock solution in 100% DMSO was prepared. […] CD spectra were acquired at 20 and 100 °C, in the 230–320 nm wavelength range, averaged over three scans and subtracted of the buffer baseline. The scanning speed was set to 100 nm/min, with a 0.5 s response time, and 1 nm bandwidth. CD melting experiments were carried out in the 20–100 °C temperature range, with 1 °C/min heating rate, by following changes in the CD signal at the wavelengths of the maximum CD intensity (i.e. 263 nm for c-Kit1 and c-Myc, and 290 nm for Tel23). As for Hairpin, CD melting curves were recorded by following the changes in the CD signal at 252 nm (the wavelength of the minimum CD intensity). CD melting curves were normalised between 0 and 1. […] The ΔT1/2 values correspond to the difference in the T1/2 values of the nucleic acid structures in the presence and absence of the compounds. All experiments were performed in duplicate, and the reported values are the mean of the two measurements.

[1] = coumarins, inhibitor-enzyme incubation 6 h
[2] = sulphonamides, inhibitor-enzyme incubation 15 min, mean ± SEM of three assays
[3] = sulphonamides, inhibitor-enzyme incubation 15 min

T1 sequence (P00915 whole entry): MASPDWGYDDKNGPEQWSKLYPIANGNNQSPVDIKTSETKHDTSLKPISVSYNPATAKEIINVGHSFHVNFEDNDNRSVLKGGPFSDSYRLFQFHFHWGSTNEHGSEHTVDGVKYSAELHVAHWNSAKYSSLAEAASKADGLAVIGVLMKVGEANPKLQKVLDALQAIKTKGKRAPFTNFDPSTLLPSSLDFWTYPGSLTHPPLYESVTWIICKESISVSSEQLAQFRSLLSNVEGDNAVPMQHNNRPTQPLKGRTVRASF

SMILES	Ki (hCA I; [1]) [nM]	Ki (hCA II; [1]) [nM]	Ki (hCA IX; [1]) [nM]	Selectivity index (SI) I/IX (hCA IX)	Selectivity index (SI) II/IX (hCA IX)	Ki (hCA XII; [1]) [nM]	Selectivity index (SI) I/XII (hCA XII)	Selectivity index (SI) II/XII (hCA XII)	ΔT1/2 Tel23 (Tel23) [°C]	ΔΔT1/2 Tel23 (Tel23) [°C]	ΔT1/2 c-Kit1 (c-Kit1) [°C]	ΔΔT1/2 c-Kit1 (c-Kit1) [°C]	ΔT1/2 c-Myc (c-Myc) [°C]	ΔΔT1/2 c-Myc (c-Myc) [°C]	ΔT1/2 Hairpin (Hairpin)	Ki (hCA I; [2]) [nM]	Ki (hCA II; [2]) [nM]	Ki (hCA IX; [3]) [nM]	Ki (hCA XII; [3]) [nM]	other results
COc1ccc2cc3[n+](cc2c1OCc1cn(CCCCOc2ccc4ccc(=O)oc4c2)nn1)CCc1cc2c(cc1-3)OCO2 [Compound 43, 10-Methoxy-9-((1–(4-((2-oxo-2H-chromen-7-yl)oxy)butyl)-1H-1,2,3-triazol-4-yl)methoxy)-5,6-dihydro-[1,3]dioxolo[4,5-g]isoquinolino[3,2-a]isoquinolin-7-ium hexafluorophosphate]	> 100000	> 100000	25.5 ± 1.5	> 392.2	> 392.2	4.2 ± 0.3	> 2381	> 2381	7.0	−2.5	16.5	3.5	14.0	2.0	-0.5 °C	–	–	–	–	–
COc1ccc2cc3[n+](cc2c1OCc1cn(-c2cccc(S(N)(=O)=O)c2)nn1)CCc1cc2c(cc1-3)OCO2 [Compound 40, 10-Methoxy-9-((1–(3-sulfamoylphenyl)-1H-1,2,3-triazol-4-yl)methoxy)-5,6-dihydro-[1,3]dioxolo[4,5-g]isoquinolino[3,2-a]isoquinolin-7-ium hexafluorophosphate]	–	–	–	941.1	23.1	–	148.0	3.6	5.5	−4.0	16.0	3.0	–	>13.0	+0.2 °C	3670 ± 22	90.1 ± 5.6	3.9 ± 0.2	24.8 ± 1.3	ΔΔT1/2 c-Myc (c-Myc; listed as S-1,0m): > 13.0 °C
COc1ccc2cc3[n+](cc2c1OCCCn1cc(CCOc2ccc4ccc(=O)oc4c2)nn1)CCc1cc2c(cc1-3)OCO2 [Compound 35, 10-Methoxy-9–(3-(4–(2-((2-oxo-2H-chromen-7-yl)oxy)ethyl)-1H-1,2,3-triazol-1-yl)propoxy)-5,6-dihydro-[1,3]dioxolo[4,5-g]isoquinolino[3,2-a]isoquinolin-7-ium hexafluorophosphate]	> 100000	> 100000	34.5 ± 2.4	> 289.9	> 289.9	18.9 ± 0.9	> 529.1	> 529.1	8.0	−1.5	18.5	5.5	18.5	6.5	+2.0 °C	–	–	–	–	–
COc1ccc2cc3[n+](cc2c1OCc1cn(-c2ccc4c(C)cc(=O)oc4c2)nn1)CCc1cc2c(cc1-3)OCO2 [Compound 45, 10-Methoxy-9-((1–(4-methyl-2-oxo-2H-chromen-7-yl)-1H-1,2,3-triazol-4-yl)methoxy)-5,6-dihydro-[1,3]dioxolo[4,5-g]isoquinolino[3,2-a]isoquinolin-7-ium hexafluorophosphate]	> 100000	> 100000	51.5 ± 3.6	> 194.2	> 194.2	5.4 ± 0.3	> 1852	> 1852	7.0	−2.5	16.5	3.5	–	>13.0	+2.5 °C	–	–	–	–	ΔΔT1/2 c-Myc (c-Myc; listed as C-1,0c): > 13.0 °C
COc1ccc2cc3[n+](cc2c1OCCn1cc(COc2ccc(S(N)(=O)=O)cc2)nn1)CCc1cc2c(cc1-3)OCO2 [Compound 27, 10-Methoxy-9–(2-(4-((4-sulfamoylphenoxy)methyl)-1H-1,2,3-triazol-1-yl)ethoxy)-5,6-dihydro-[1,3]dioxolo[4,5-g]isoquinolino[3,2-a]isoquinolin-7-ium hexafluorophosphate]	–	–	–	1446	9.2	–	213.7	1.4	7.5	−2.0	18.5	5.5	18.5	6.5	-0.5 °C	940 ± 52.1	6	0.65 ± 0.05	4.4	–
COc1ccc2cc3[n+](cc2c1OCCCn1cc(-c2ccc(S(N)(=O)=O)cc2)nn1)CCc1cc2c(cc1-3)OCO2 [Compound 28, 10-Methoxy-9–(3-(4–(4-sulfamoylphenyl)-1H-1,2,3-triazol-1-yl)propoxy)-5,6-dihydro-[1,3]dioxolo[4,5-g]isoquinolino[3,2-a]isoquinolin-7-ium hexafluorophosphate]	–	–	–	1194	91.5	–	62.3	4.8	6.0	−3.5	16.5	3.5	–	>13.0	-2.0 °C	872 ± 55.9	66.8 ± 3.9	0.73 ± 0.04	14 ± 1	ΔΔT1/2 c-Myc (c-Myc; listed as S-3,0): > 13.0 °C
COc1ccc2cc3[n+](cc2c1OCCCn1cc(CCCOc2ccc4ccc(=O)oc4c2)nn1)CCc1cc2c(cc1-3)OCO2 [Compound 36, 10-Methoxy-9–(3-(4–(3-((2-oxo-2H-chromen-7-yl)oxy)propyl)-1H-1,2,3-triazol-1-yl)propoxy)-5,6-dihydro-[1,3]dioxolo[4,5-g]isoquinolino[3,2-a]isoquinolin-7-ium hexafluorophosphate]	> 100000	> 100000	58.9 ± 3.9	> 169.8	> 169.8	28.4 ± 1.7	> 352.1	> 352.1	12.5	3.0	17.0	4.0	15.0	3.0	+0.5 °C	–	–	–	–	–
